# Patent US20050250801A1, “Method of treating cancer with azaspirane compositions” (priority 2003, published 2005)
# Read-outs that look alike come from different tables or passages of the source.
# How the values were obtained:
# Assay in all cases: NCI in vitro SRB assay, Non-Small Cell Lung Cancer
# Type in all cases: cell-based
# [1] = tested on: EKVX; details: for GI50: Homo sapiens
# Experimental: (§1) An in vitro assay which tested the ability of N,N,-diethyl-8,8-dipropyl-2-azaspiro[4,5]decane-2-propanamine dimaleate (Compound 1) to inhibit the growth of known cancer cell lines was performed by the National Cancer Institute in accordance with standard procedures. See: Lin, Z. X., Hoult, J. R., and Raman, A. Sulphorhodamine B assay for measuring proliferation of a pigmented melanocyte cell line and its application to the evaluation of crude drugs used in the treatment of vitiligo. J Ethnopharmacol. 66: 141-150, 1999. Briefly, selected tumor cell lines were cultured in media containing five different concentrations of Compound 1. After 48 hours of continuous exposure, a sulforhodamine B (SRB) assay was used to estimate cell viability or growth via optical measurements.
# (§2) From the measurements, the following values were determined: 1) the concentration of Compound 1 at which a tumor cell growth inhibition of 50% (relative to control) occurs (GI50), 2) the concentration of Compound 1 at which no growth occurs (total growth inhibition, TGI), and 3) the concentration of Compound 1 at which the […] (LC 50). […] FIG. 6 illustrates, graphically, tumor cell growth as a function of Compound 1 concentration of the scanned tumor cell lines.
# [2] = tested on: HOP-62; details: for CC50 / GI50: Homo sapiens
# Experimental: as §1, §2
# [3] = tested on: NCI-H23; details: for CC50 / GI50: Homo sapiens
# Experimental: as §1, §2
# [4] = tested on: NCI-H322M; details: for GI50 / CC50: Homo sapiens
# Experimental: as §1, §2
# [5] = read-out: Log10 GI50 (converted)
# [6] = HOP-62, Log10 conc -4.0 Moles/L
# [7] = HOP-62, Log10 conc -5.0 Moles/L
# [8] = HOP-62, Log10 conc -6.0 Moles/L
# [9] = HOP-62, Log10 conc -7.0 Moles/L
# [10] = HOP-62, Log10 conc -8.0 Moles/L
# [11] = NCI-H23, Log10 conc -4.0 Moles/L
# [12] = NCI-H23, Log10 conc -5.0 Moles/L
# [13] = NCI-H23, Log10 conc -6.0 Moles/L
# [14] = NCI-H23, Log10 conc -7.0 Moles/L
# [15] = NCI-H23, Log10 conc -8.0 Moles/L
compound,measurement,setting,value
"CCCC1(CCC)CCC2(CCN(CCCN(CC)CC)C2)CC1.O=C(O)/C=C\C(=O)O.O=C(O)/C=C\C(=O)O [Compound 1, N,N,-diethyl-8,8-dipropyl-2-azaspiro[4,5]decane-2-propanamine dimaleate]",Log10 TGI,[1],−5.39
same,TGI,[1],4090 nM
same,GI50,[1]; read-out: GI50,2110 nM
same,GI50,[1]; [5],2090 nM
same,Mean Optical Densities,[1]; Log10 conc -4.0 Moles/L,0.073
same,Percent Growth,[1]; Log10 conc -4.0 Moles/L,−88%
same,Mean Optical Densities,[1]; Log10 conc -5.0 Moles/L,0.202
same,Percent Growth,[1]; Log10 conc -5.0 Moles/L,−67%
same,Mean Optical Densities,[1]; Log10 conc -6.0 Moles/L,1.321
same,Percent Growth,[1]; Log10 conc -6.0 Moles/L,106%
same,Mean Optical Densities,[1]; Log10 conc -7.0 Moles/L,1.336
same,Percent Growth,[1]; Log10 conc -7.0 Moles/L,108%
same,Mean Optical Densities,[1]; Log10 conc -8.0 Moles/L,1.280
same,Percent Growth,[1]; Log10 conc -8.0 Moles/L,100%
same,Log10 TGI,[2]; HOP-62,−5.54
same,TGI,[2]; HOP-62,2910 nM
same,Mean Optical Densities,[2]; [6],0.090
same,Percent Growth,[2]; [6],−79%
same,Mean Optical Densities,[2]; [7],0.056
same,Percent Growth,[2]; [7],−87%
same,Mean Optical Densities,[2]; [8],0.693
same,Percent Growth,[2]; [8],75%
same,Mean Optical Densities,[2]; [9],0.757
same,Percent Growth,[2]; [9],93%
same,Mean Optical Densities,[2]; [10],0.711
same,Percent Growth,[2]; [10],80%
same,CC50,"[2]; HOP-62, read-out: LC50",5930 nM
same,CC50,"[2]; HOP-62, read-out: Log10 LC50 (converted)",5890 nM
same,GI50,"[2]; HOP-62, read-out: GI50",1430 nM
same,GI50,"[2]; HOP-62, read-out: Log10 GI50 (converted)",1450 nM
same,CC50,"[3]; NCI-H23, read-out: LC50",6320 nM
same,CC50,"[3]; NCI-H23, read-out: Log10 LC50 (converted)",6310 nM
same,GI50,"[3]; NCI-H23, read-out: GI50",1960 nM
same,GI50,"[3]; NCI-H23, read-out: Log10 GI50 (converted)",1950 nM
same,Log10 TGI,[3]; NCI-H23,−5.45
same,TGI,[3]; NCI-H23,3520 nM
same,Mean Optical Densities,[3]; [11],0.030
same,Percent Growth,[3]; [11],−92%
same,Mean Optical Densities,[3]; [12],0.040
same,Percent Growth,[3]; [12],−89%
same,Mean Optical Densities,[3]; [13],0.822
same,Percent Growth,[3]; [13],107%
same,Mean Optical Densities,[3]; [14],0.814
same,Percent Growth,[3]; [14],105%
same,Mean Optical Densities,[3]; [15],0.728
same,Percent Growth,[3]; [15],85%
same,Log10 TGI,[4],−5.64
same,TGI,[4],2290 nM
same,GI50,[4]; read-out: GI50,890 nM
same,CC50,[4]; read-out: LC50,5410 nM
same,GI50,[4]; [5],891 nM
same,CC50,[4]; read-out: Log10 LC50 (converted),5370 nM
same,Mean Optical Densities,[4]; Log10 conc -4.0 Moles/L,0.115
same,Percent Growth,[4]; Log10 conc -4.0 Moles/L,−84%
same,Mean Optical Densities,[4]; Log10 conc -5.0 Moles/L,0.100
